The text below walks through data of patent publication US6309874A, “Selection marker” (priority 1998, dated 2001).

In experiment [1] the target is T1, Leu799Cys (L799C) rat Na+,K+-ATPase a1 subunit (Rattus norvegicus, UniProt P06685, L800C).
T1 construct: expressed in transfected cells; crude membrane fraction
The experiment is described as follows: Na+,K+-ATPase-dependent ATP hydrolysis, mutated enzyme. It counts as biochemical. How it is done:
(§1) Cells were lysed by treatment with 1 mM Tris-HCl pH 7.5 on ice for 15 min and a crude membrane fraction was prepared as described (Horiuchi, A., Takeyasu, K., Mouradian, M., Jose, P and Felder, R (1993) Mol. Phamiacol. 43, 281-285). The membrane fraction was frozer, in aliquots and stored over-night at -70° C.

For experiment [2], the target named is T2, wild type rat Na+,K+-ATPase a1 subunit (Rattus norvegicus, UniProt P06685).
T2 construct: expressed in transfected cells; crude membrane fraction
The experiment is described as follows: Na+,K+-ATPase-dependent ATP hydrolysis, natural enzyme. It counts as biochemical. On the procedure: as §1

Experiment [3] relates to ouabain-sensitive (endogenous) Na+,K+-ATPase. The experiment is described as follows: Pilot studies, ouabain-sensitive enzyme population. It counts as biochemical. On the procedure: as §1
Another experiment has as its system Na+,K+-ATPase. In words: Pilot studies, total Na+,K+-ATPase of transfected cells. The format is biochemical. Particulars: 10^-5 M ouabain, 10 µM. How it is done:
as §1

Experiment [4] has as its system untransfected COS-7 cells. The experiment is described as follows: Cell attachment on fibronectin, untransfected cells. Particulars: different concentrations of ouabain, 0 to 1.0 mM, FIG. 2. The format is cell-based, monkey. On the procedure: (§2) Cell attachment on fibronectin coted substrates was assayed in microtiterwells (Costar). All wells were preincubated over night at 4° C. with 5 microg/ml concentration of fibronectin. Before adding cells, each well was preincubated with 1% BSA for 30 min in 37° C. and later washed with serum free DMEM. Untransfected COS-7 cells and COS-7 cells expressing wild type or L799C Na+,K+-ATPase were grown in a 3 microCi/ml H3-thymidine containing medium supplemented with 10% fetal calf serum and harvested after approximately 72 hours at 60-80% confluence. Approximately 25,000 cells /wells were seeded in serum free DMEM. Cells were first incubated 15 min with different concentrations of oubain and then allowed to attach to fibronectin (5 μg/ml) coated substrates during 30 min of incubation in 37° C. and later washed with serum free DMEM. Radioactivity was measured in a Wallac Scintillation counter. Results are presented as % remaining radioactivity compared to untreated.

Experiment [5] concerns COS-7 cells expressing wild type Na+,K+-ATPase. In words: Cell attachment on fibronectin, wild type transfected cells. The format is cell-based, monkey. Conditions: different concentrations of ouabain, 0 to 1.0 mM, FIG. 2. How it is done: as §2
For experiment [6], the system named is COS-7 cells expressing L799C Na+,K+-ATPase. In words: Cell attachment on fibronectin, L799C transfected cells. The format is cell-based, monkey. Particulars: different concentrations of ouabain, 0 to 1.0 mM, FIG. 2. How it is done: as §2
In experiment [7] the test system is cells with mutated murine and human NKA alpha 1-subunit. Particulars: read-out: IC50 for ouabain; cells with a mutation in murine and human NKA alpha 1-subunit, Cantley et al 1994; cited from earlier work.
Experiment [8] relates to LLC-PK1 cells transfected with mutated (L799C and/or L801C) rat Na+,K+-ATPase alpha1 subunit. The experiment is described as follows: Survival study, transfected LLC-PK1 cells.
For experiment [9], the system named is cells transfected with mutant rat Na+,K+-ATPase a1. In words: Cell survival in ouabain medium, mutant transfected cells.
Experiment [10] concerns cells transfected with wild type rat Na+,K+-ATPase a1. The experiment is described as follows: Cell survival in ouabain medium, wild type transfected cells. Particulars: 500 μM ouabain.

With `C[C@@H]1O[C@@H](O[C@H]2C[C@@H](O)[C@]3(CO)[C@H]4[C@H](O)C[C@]5(C)[C@@H](C6=CC(=O)OC6)CC[C@]5(O)[C@@H]4CC[C@]3(O)C2)[C@H](O)[C@H](O)[C@H]1O` [ouabain], the “inhibition of the enzyme” value in experiment [1] (ouabain concentrations up to 2 mM) was “no significant inhibition”. Besides, the activity at 2000 µM in experiment [1] (read-out: (Na,K)-ATPase activity in percent in comparison with not treated) is around 100%. Also, the inhibition at 2000 µM in [2] is 85 to 90%. Further, the IC100 in experiment [2] (read-out: ouabain concentration that completely inhibited the enzyme population, pilot studies, ouabain-insensitive (transfected) wild type enzyme) stood at 5000 µM. The “ouabain concentration that completely inhibited the enzyme population” value in experiment [3] is listed as 10^-5 M. In addition, the “share of Na+,K+-ATPase resistant to ouabain” value in the experiment with Na+,K+-ATPase is recorded as “Approximately 60%”. The “cell attachment to fibronectin coated substrates” value in [4] is on record as “loss of attachment”; in experiment [4] (listed as oubain), “decreased dose dependent”; in experiment [5] it was “loss of attachment”; in experiment [6] it was “no change in attachment”. Moreover, in [7], the IC50 is around 5 mM. In experiment [8] (as high as 500×10^-6 M ouabain), the “growing and morphological characteristics of the cells” value is recorded as “did not seem to alter”. For the same compound, the “cell survival, multiplication and exterior” value in experiment [8] (ouabain concentrations up to 500 μM) was “survive, multiply and keep their natural exterior”. In addition, the “ouabain concentration survived by the cells” value in [9] is reported as “at least 1×10^-3 M”. Also, the cell survival result is “survived” in experiment [9] (longtime treatment with 500 μM ouabain); “died and died within a few days” in experiment [10].

The inhibition is how much of the control response was suppressed. A low value points to a response near the control. The IC50 is the concentration that inhibits the measured activity by half.
